Measured values as given in US12391674B2, “Heterocyclic compounds for the treatment of epilepsy” (OTSUKA PHARMACEUTICAL CO., LTD., priority 2018, dated 2025).

System: DBA/2 mice
Assay: Audiogenic seizure model
Assay type: in vivo
Settings: Mus musculus, DBA/2 mice, oral, auditory stimulation 1 hour after administration, read-out: Seizure suppression
Protocol: The animal model used in this test is a phenotype model for partial seizure (including secondary generalized seizure) and generalized tonic-clonic seizure, and has high clinical predictability. This test was performed in accordance with the report of De Sarro et al (Br J Pharmacol. 1988 February; 93 (2): 247-56. Anticonvulsant effects of some calcium entry blockers in DBA/2 mice. De Sarro G B, Meldrum B S, Nistico G.).
In this test example, the example compounds shown in Tables 3-1 to 3-3 below were used as test compounds.
The test compounds were suspended in 5% gum arabic/distilled water (w/v), and administered by forced oral administration to male and female DBA/2 mice (Japan SLC, Inc., 3 weeks old, 8 per group) at a dose of 30 mg/kg. After one hour of the oral administration of the test compound, each mouse was placed in a transparent acrylic cylinder 30 cm high and 23 cm in diameter, and 30 seconds were allowed for habituation. Then, they were exposed to auditory stimulation (12.6 kHz, 100-110 dB) for 1 minute or until a tonic seizure occurred.
The seizure response was assessed using the following scale, 0: no seizure, 1: wild running, 2: clonic seizure, 3: tonic seizure and 4: respiratory arrest. The maximum response was recorded as the seizure severity score.
The seizure suppression rate for each compound administration group was calculated according to the following formula.
Here, a rate of seizure suppression of 90% or more was expressed as “A”, a rate of seizure suppression of 70% or more and less than 90% was expressed as “B”, and a rate of seizure suppression of 50% or more and less than 70% was expressed as “C”.

Compound	inhibition in vivo at 30 mg/kg [%]	inhibition in vivo at 5 mg/kg [%]
COc1ccc(-c2cnc(Oc3cc(F)ccc3F)nc2)nn1 [Example 63, 3-(2-(2,5-Difluorophenoxy)Pyrimidin-5-Yl)-6-Methoxypyridazine]	> 90	–
COc1ccc(-c2cnc(Oc3ccc(F)cc3F)nc2)nn1 [Example 65]	> 90	–
FC(F)(F)Oc1cccc(Oc2ncc(-c3ccc(C(F)(F)F)nn3)cn2)c1 [Example 67]	> 90	–
COc1ccc(-c2cnc(Oc3cccc(F)c3F)nc2)nn1 [Example 68]	> 90	–
CC(C)(O)c1ccc(-c2cnc(Oc3ccccc3)nc2)nn1 [Example 69, 2-(6-(2-Phenoxypyrimidin-5-Yl)Pyridazin-3-Yl) Propan-2-Ol]	> 90	–
Cc1ccc(-c2cnc(Oc3ccccc3)nc2)c(C)n1 [Example 70]	> 90	–
COc1ccc(-c2cnc(Oc3cccc(Cl)c3)nc2)nn1 [Example 71]	> 90	–
OCc1ccc(-c2cnc(Oc3ccccc3)nc2)nn1 [Example 72, (6-(2-Phenoxypyrimidin-5-Yl)Pyridazin-3-Yl) Methanol]	> 90	–
COc1ccc(-c2cnc(Oc3cccc(C#N)c3)nc2)nn1 [Example 73]	> 90	–
Nc1nccc(-c2cnc(Oc3ccccc3)nc2)n1 [Example 75]	> 90	–
Cc1ncccc1-c1cnc(Oc2cccc(C(F)(F)F)c2)nc1 [Example 76]	> 90	–
Cc1ncccc1-c1cnc(Oc2cccc(OC(F)(F)F)c2)nc1 [Example 77]	> 90	–
Nc1cc(-c2cnc(Oc3cccc(F)c3)nc2)ccn1 [Example 78]	> 90	–
Nc1cc(-c2cnc(Oc3ccc(F)cc3)nc2)ccn1 [Example 79]	> 90	–
Nc1cc(-c2cnc(Oc3ccccc3F)nc2)ccn1 [Example 80]	> 90	–
Nc1cc(-c2cnc(Oc3cccc(C(F)(F)F)c3)nc2)ccn1 [Example 81]	> 90	–
Nc1cc(-c2cnc(Oc3cc(F)cc(F)c3)nc2)ccn1 [Example 82]	> 90	–
Nc1cc(-c2cnc(Oc3cccc(OC(F)(F)F)c3)nc2)ccn1 [Example 83]	> 90	–
Nc1ccc(-c2cnc(Oc3cc(F)ccc3F)nc2)cn1 [Example 84, 5-(2-(2,5-Difluorophenoxy)Pyrimidin-5-Yl)Pyridin-2-Amine]	> 90	–
Nc1ccc(-c2cnc(Oc3ccc(F)c(F)c3)nc2)cn1 [Example 85]	> 90	–
Nc1ccc(-c2cnc(Oc3ccc(F)cc3F)nc2)cn1 [Example 86]	> 90	–
Nc1ccc(-c2cnc(Oc3cccc(F)c3F)nc2)cn1 [Example 87]	> 90	–
Cc1cccc(Oc2ncc(-c3ccc(N)nc3)cn2)c1 [Example 88, 5-(2-(m-Tolyloxy)Pyrimidin-5-Yl)Pyridin-2-Amine]	> 90	–
N#Cc1cccc(Oc2ncc(-c3ccc(N)nc3)cn2)c1 [Example 89]	> 90	–
O=C1CCC(c2cnc(Oc3cccc(F)c3)nc2)=NN1 [Example 94, 6-(2-(3-Fluorophenoxy)Pyrimidin-5-Yl)-4,5-Dihydropyridazin-3 (2H)-One]	> 90	–
O=C1CCC(c2cnc(Oc3ccccc3F)nc2)=NN1 [Example 96]	> 90	–

Compound	inhibition in vivo at 30 mg/kg [%]	inhibition in vivo at 5 mg/kg [%]
O=C1CCC(c2cnc(Oc3cccc(C(F)(F)F)c3)nc2)=NN1 [Example 100]	> 90	–
O=C1CCC(c2cnc(Oc3c(F)cccc3F)nc2)=NN1 [Example 104]	> 90	–
O=C1CCC(c2cnc(Oc3cc(F)cc(F)c3)nc2)=NN1 [Example 105]	> 90	–
Cc1cccc(Oc2ncc(-c3ccc(=O)[nH]c3)cn2)c1 [Example 106, 5-(2-(m-Tolyloxy)Pyrimidin-5-Yl)Pyridin-2 (1H)-One]	–	> 90
O=c1ccc(-c2cnc(Oc3cc(F)ccc3F)nc2)n[nH]1 [Example 108]	> 90	–
O=c1ccc(-c2cnc(Oc3ccc(F)cc3F)nc2)n[nH]1 [Example 109]	> 90	–
O=c1ccc(-c2cnc(Oc3cccc(F)c3F)nc2)n[nH]1 [Example 110]	> 90	–
O=c1ccc(-c2cnc(Oc3cccc(Cl)c3)nc2)n[nH]1 [Example 111]	> 90	–
N#Cc1cccc(Oc2ncc(-c3ccc(=O)[nH]n3)cn2)c1 [Example 112]	> 90	–
O=c1[nH]nccc1-c1cnc(Oc2cccc(F)c2)nc1 [Example 115]	> 90	–
O=c1cc(-c2cnc(Oc3ccccc3)nc2)cn[nH]1 [Example 116]	> 90	–
O=c1[nH]nccc1-c1cnc(Oc2ccccc2F)nc1 [Example 117]	> 90	–
Fc1ccccc1Oc1ncc(-c2ccc3nccn3n2)cn1 [Example 124]	> 90	–
Fc1cccc(Oc2ncc(-c3ccc4nccn4n3)cn2)c1 [Example 125]	> 90	–
Fc1ccc(Oc2ncc(-c3ccc4nccn4n3)cn2)cc1 [Example 126]	> 90	–
c1ccc(Oc2ncc(-c3cnc4nccn4c3)cn2)cc1 [Example 128]	> 90	–
Fc1ccccc1Oc1ncc(-c2ccn3ccnc3c2)cn1 [Example 130]	> 90	–
Fc1cccc(Oc2ncc(-c3ccn4ccnc4c3)cn2)c1 [Example 131]	> 90	–
Fc1ccc(Oc2ncc(-c3ccn4ccnc4c3)cn2)cc1 [Example 132]	> 90	–
c1ccc(Oc2ncc(-c3cnc4[nH]ncc4c3)cn2)cc1 [Example 133]	> 90	–
c1ccc(Oc2ncc(-c3ccn4ncnc4c3)cn2)cc1 [Example 135]	> 90	–
c1ccc(Oc2ncc(-c3cccc4nccn34)cn2)cc1 [Example 136]	> 90	–
c1ccc(Oc2ncc(-c3ccnc4[nH]ccc34)cn2)cc1 [Example 138]	> 90	–
c1ccc(Oc2ncc(-c3ccnc4ncccc34)cn2)cc1 [Example 139, 4-(2-Phenoxypyrimidin-5-Yl)-1,8-Naphthyridine]	> 90	–
Nc1cn2cc(-c3cnc(Oc4ccccc4)nc3)ccc2n1 [Example 140]	> 90	–
COc1nc(Oc2ccccc2)ncc1-c1ccc2nccn2c1 [Example 142]	> 90	–

Compound	inhibition in vivo at 30 mg/kg [%]	inhibition in vivo at 5 mg/kg [%]
Fc1ccccc1Oc1ncc(-c2ccc3ncnn3c2)cn1 [Example 144]	> 90	–
Fc1cccc(Oc2ncc(-c3ccc4ncnn4c3)cn2)c1 [Example 145]	> 90	–
Fc1ccc(Oc2ncc(-c3ccc4ncnn4c3)cn2)cc1 [Example 146]	> 90	–
NC1=NC2C=CC(c3cnc(Oc4ccccc4)nc3)=CC2=N1 (stereo not shown) [Example 147]	> 90	–
Fc1ccccc1Oc1ncc(-c2cn3ccnc3cn2)cn1 [Example 149]	> 90	–
Fc1cccc(Oc2ncc(-c3cn4ccnc4cn3)cn2)c1 [Example 150]	> 90	–
Fc1ccccc1Oc1ncc(-c2ccc3ccnn3c2)cn1 [Example 152]	> 90	–
Fc1cccc(Oc2ncc(-c3ccc4ccnn4c3)cn2)c1 [Example 153]	> 90	–
Fc1ccc(Oc2ncc(-c3ccc4ccnn4c3)cn2)cc1 [Example 154]	> 90	–
Fc1ccccc1Oc1ncc(-c2ccc3cncn3c2)cn1 [Example 156]	> 90	–
Fc1cccc(Oc2ncc(-c3ccc4cncn4c3)cn2)c1 [Example 157]	> 90	–
Fc1ccc(Oc2ncc(-c3ccc4cncn4c3)cn2)cc1 [Example 158]	> 90	–
COc1nc(Oc2ccccc2)ncc1-c1ccc2nncn2c1 [Example 159]	> 90	–
COc1nc(Oc2ccccc2)ncc1-c1ccc2nccn2n1 [Example 160]	> 90	–
Fc1cccc(Oc2ncc(-c3ccc4nccn4c3)cn2)c1F [Example 164]	–	> 90
Fc1ccc(Oc2ncc(-c3ccc4nccn4c3)cn2)c(F)c1 [Example 165]	–	> 90
Fc1ccc(F)c(Oc2ncc(-c3ccc4nccn4c3)cn2)c1 [Example 166]	–	> 90
Fc1cccc(F)c1Oc1ncc(-c2ccc3nccn3c2)cn1 [Example 167]	–	> 90
Fc1ccc(Oc2ncc(-c3ccc4nccn4c3)cn2)cc1F [Example 168]	–	> 90
Fc1cc(F)cc(Oc2ncc(-c3ccc4nccn4c3)cn2)c1 [Example 169]	–	> 90
Fc1ccccc1Oc1ncc(-c2ccc3cnnn3c2)cn1 [Example 174]	> 90	–
Fc1cccc(Oc2ncc(-c3ccc4cnnn4c3)cn2)c1 [Example 175]	> 90	–
Fc1ccc(Oc2ncc(-c3ccc4cnnn4c3)cn2)cc1 [Example 176]	> 90	–
Cc1cn2cc(-c3cnc(Oc4ccccc4F)nc3)ccc2n1 [Example 178]	> 90	–
